Results taken from patent US10143711B2, “Pathways to generate hair cells” (Massachusetts Eye & Ear Infirmary, priority 2008, dated 2018).

Columns and labels:
Atoh1 and β-catenin = experiment: β-catenin and Atoh1 expression in bone marrow derived MSCs on Notch inhibition and β-catenin activation; type: cell-based, human
Excerpt: Notch signaling was inhibited using a γ-secretase inhibitor (DAPT) and β-catenin was activated using a GSK3β inhibitor (GSKi). […] Altered Notch activity was confirmed using CBF-1 luciferase reporter.
Mesenchymal stem cells (MSCs) were isolated from human bone marrow using the methods described by Jeon et al. (Mol. Cell. Neurosci., 34(1):59-68, (2007)). Cells were expanded once before use and cultured in MEM-α cell culture media (Sigma-Aldrich) supplemented with 9% horse serum, 9% fetal calf serum, and penicillin (100 U/mL) and streptomycin (100 μg/mL).

Atoh1 = experiment: Gene silencing with siRNA in neural progenitor cells and Neuro2a (RT-PCR); type: cell-based, mouse; details: 200 nM siRNA; for decrease of Atoh1 expression: harvested after 48 hours, neural progenitor cells and Neuro2a
Procedure: The data shown in Examples 1-3 was corroborated using gene silencing. Briefly, siRNA were designed to silence Atoh1 (NM 007500.4, NM 005172.1) and β-catenin (NM_007614.2 and NM_001904.3), as shown below: Atoh1:
200 nM of each siRNA were transfected using the GeneSilencer™ transfection reagent at 5 μL/mL. Cells were incubated in the presence of the transfection mix for 16 hours and were harvested following a total of 48 hours. Non-targetting siRNA was used as control. Gene silencing was confirmed using RT-PCR. Cells were also transfected with Atoh1, β-catenin, or GFP using the methods described above.

Molecule | β-catenin expression (Atoh1 and β-catenin; human bone marrow MSCs, DAPT used at 10 μM and 50 μM) | decrease of Atoh1 expression (Atoh1) | β-catenin expression levels (Atoh1; all cell types tested) | Atoh1 expression (Atoh1 and β-catenin; MSCs with γ-secretase treatment and siRNA suppression of β-catenin)
C[C@H](NC(=O)Cc1cc(F)cc(F)c1)C(=O)N[C@H](C(=O)OC(C)(C)C)c1ccccc1 [γ-secretase inhibitor, N—[N-(3,5-difluorophenacetyl)-L-alanyl]-(S)-phenylglycine t-butyl ester] | increased |  |  | 
Atoh1 siRNA: siRNA designed to silence Atoh1, SEQ ID NO:16 (GCAACGUUAUCCCGUCCUUUAACAGCGAUGAUGGCACA; listed as RNA, chemistry not given here) |  | about 45% |  | 
β-catenin siRNA: siRNA designed to silence β-catenin, SEQ ID NO:17 (GCGCUUGGCUGAACCAUCAUUGUGAAAUUCUUGGCUAUUAUU; listed as RNA, chemistry not given here) |  | about 40% | suppressed | reduced
